Drawing on patent publication US7786257B2, “Signal-1/signal-2 bifunctional peptide inhibitors” (priority 2000, dated 2010), this text covers IFN-γ production, IL-4 production increase and IL-4 production for one substance.

Where no end group is shown, it is not given here. [ ]: non-standard residue; d: D form. Ahx = NCCCCCC(=O)O

The subject of this assay is T-cells from NOD mice. Kind of assay: ELISPOT of IL-4 and IFN-γ release by T-cells from treated NOD mice (TH1/TH2 frequency). Format: in vivo, mouse. From the text:
Groups of 3-5 NOD mice were immunized subcutaneously (s.c.) with the GAD 65 peptide in CFA (40 nanomoles/mouse) at the tail base. Different groups received either the EGAD-BPI, its single TCR epitope (Signal-1 moiety), or its CD11a peptide (Signal-2 moiety) i.v. (all 40 nanomoles/mouse). After 6-8 days, another identical 40 nanomole injection was given to each mouse, and the next day lymph nodes draining the site of the s.c. injection were made into single cell suspensions for culture. Identical primary cultures were incubated for 96 hours; then, viable T-cells were recovered by density gradient centrifugation. One million of these cells were combined in nitrocellulose-bottomed 96-well plates (Millititer-HA, Millipore, Bedford, Mass.), previously coated (50 μl/well) with mAb to either mouse IFNγ (clone R4-6A2), or mouse IL-4 (clone BVD4-1D11) at a concentration of 10 μg/ml in PBS. Groups of triplicate cultures were incubated with either Concanavalin-A (2 μg/ml), or the Signal-1 peptide moiety plus 20 U/ml recombinant IL2 (R & D Systems). After 72-96 hours of culture at 37° C. and 5% CO2, plates were washed three times with PBS-0.05% Tween-20. In appropriate wells are added biotinylated anti-IFNγ (clone XMG1.2) or biotinylated anti-IL-4 (clone BVD6-24G2) at a concentration of 1 μg/ml and incubated for 1 hour at room temperature. Positive control wells receive known TH1 or TH2 clones in place of normal T-cells. MAb pairs to IL12, IL10, and IL2 are also available and will be used to test for these cytokines in the same assay. All mAb and recombinant controls are purchased from PharMingen (San Diego, Calif.). Finally, plates were washed three times with PBS-Tween, and then exposed to 100 μl of a 1:2000 dilution of streptavidin alkaline phosphatase (Jackson ImmunoResearch, West Grove, Pa.) for 1 h and washed as before. […]

Consider “GAD65(208-217)-[Ac-G-Ac-G-Ac]-CD11a (237-247) (EIAPVFVLLE[Ahx]G[Ahx]G[Ahx]ITDGEATDSG) [EGAD-BPI]”, for which the IFN-γ production entry (T-cells from treated animals stimulated in vitro with mitogen) is on record as “also increased, although to a lesser extent”. The IL-4 production increase result (T-cells from treated animals stimulated in vitro with mitogen, versus saline control, 40 nanomoles/mouse i.v. twice) is on record as “approximately 10 fold”. Further, the IL-4 production result (treated NOD mice versus control mice) is listed as “abundant IL-4”.
